Reference: PubChem BioAssay AID190 (DTP/NCI, 2004)
Toxic doses and inconclusive results are not listed. Rule for the calls: active = survival T/C of 150% or more; inactive = T/C below 125% in these data.

Test system: AKR/Lw mice, AKR lymphoma ip, median survival T/C
Assay: NCI In Vivo Anticancer Drug Screen. Data for tumor model Lymphoma AKR (Transplanted) (intraperitoneal) in AKR/Lw mice
Conditions: endpoint: median survival time, higher = longer survival
Procedure: The antitumor activity of compounds was measured in mice bearing transplantable tumors. Survival or tumor size were measured and the results are expressed as the measurement made in the treated group (T) divided by the measurement made in the vehicle treated control group (C). The tumor model used in this assay is Lymphoma AKR (Transplanted) (intraperitoneal) in AKR/Lw mice

[1] = dose: 100.0 mg/kg/injection, schedule: Q01DX001 (ip), vehicle: Klucel (hydroxypropylcellulose) (HPC)
[2] = dose: 400.0 mg/kg/injection, schedule: Q01DX001 (ip), vehicle: Klucel (hydroxypropylcellulose) (HPC)

Measured: T/C

NC(=O)c1[nH]nc(C2OC(CO)C(O)C2O)c1O (centres undefined)
inactive: dose: 0.07 mg/kg/injection, schedule: Q01DX009 (ip), vehicle: saline 86 % of control | dose: 0.25 mg/kg/injection, schedule: Q04DX003 (ip), vehicle: saline 105 % of control | dose: 0.5 mg/kg/injection, schedule: Q04DX003 (ip), vehicle: saline 105 % of control | dose: 0.75 mg/kg/injection, schedule: Q04DX003 (ip), vehicle: saline 88 % of control | dose: 1.0 mg/kg/injection, schedule: Q04DX003 (ip), vehicle: saline 90 % of control | dose: 7.5 micrograms/kg/injection, schedule: Q01DX009 (ip), vehicle: saline 110 % of control | dose: 15.0 micrograms/kg/injection, schedule: Q01DX009 (ip), vehicle: saline 121 % of control | dose: 30.0 micrograms/kg/injection, schedule: Q01DX009 (ip), vehicle: saline 103 % of control | dose: 60.0 micrograms/kg/injection, schedule: Q01DX009 (ip), vehicle: saline 121 % of control

C[C@]12CCC(=O)C=C1CC[C@@H]1[C@@H]2[C@@H](O)C[C@@]2(C)[C@H]1CC[C@]2(O)C(=O)CO
inactive: dose: 5.0 mg/kg/injection, schedule: Q01DX005 (sc), vehicle: steriod suspending solution 117 % of control | dose: 10.0 mg/kg/injection, schedule: Q01DX005 (sc), vehicle: steriod suspending solution 106 % of control | dose: 20.0 mg/kg/injection, schedule: Q01DX005 (sc), vehicle: steriod suspending solution 106 % of control | dose: 25.0 mg/kg/injection, schedule: Q01DX005 (sc), vehicle: steriod suspending solution 94 % of control | dose: 50.0 mg/kg/injection, schedule: Q01DX005 (sc), vehicle: steriod suspending solution 107 % of control

COc1ccc(CCN2C(=O)CSC2=S)cc1OC
inactive: [1] 100 % of control | [2] 100 % of control

NCOC(=O)Cc1ccc(Br)cc1
inactive: [1] 106 % of control | dose: 200.0 mg/kg/injection, schedule: Q01DX001 (ip), vehicle: Klucel (hydroxypropylcellulose) (HPC) 102 % of control | [2] 106 % of control
